Test results as given in patent US20220177428A1, “SPECIFICALLY SUBSTITUTED 3-(2-ALKOXY-6-ALKYL-4-PROPINYLPHENYL)-3-PYRROLIN-2-ONES AND THEIR USE AS HERBICIDES” (Bayer Aktiengesellschaft, priority 2019, published 2022).

Assays:
Format in all cases: in vivo
Abutylon threophrasti = assay: Pre-emergence herbicidal effect; conditions: 320 g ai/ha, visual score after 3 weeks
Text: (§1) Seeds of monocotyledonous and dicotyledonous weed plants and crop plants are laid out in sandy loam soil in wood-fibre pots and covered with soil. The compounds of the invention, formulated in the form of wettable powders (WP) or as emulsion concentrates (EC), are then applied to the surface of the covering soil as aqueous suspension or emulsion at a water application rate equating to 600 to 800 L/ha with addition of 0.2% wetting agent. After the treatment, the pots are placed in a greenhouse and kept under good growth conditions for the trial plants. The damage to the test plants is scored visually after a test period of 3 weeks by comparison with untreated controls (herbicidal activity in percent (%): 100% activity=the plants have died, 0% activity=like control plants). [table]

Alopecurus myosuroides [1] = assay: Pre-emergence herbicidal effect; conditions: visual score after 3 weeks
Text: as §1

Amaranthus retroflexus = assay: Pre-emergence herbicidal effect; conditions: 320 g ai/ha, visual score after 3 weeks
Text: as §1

Avena fatua [2] = assay: Pre-emergence herbicidal effect; conditions: visual score after 3 weeks
Text: as §1

Digitaria sanguinalis [3] = assay: Pre-emergence herbicidal effect; conditions: visual score after 3 weeks
Text: as §1

Echinochloa crus-galli [4] = assay: Pre-emergence herbicidal effect; conditions: visual score after 3 weeks
Text: as §1

Lolium rigidum [5] = assay: Pre-emergence herbicidal effect; conditions: visual score after 3 weeks
Text: as §1

Matricaria inodora = assay: Pre-emergence herbicidal effect; conditions: 320 g ai/ha, visual score after 3 weeks
Text: as §1

Setaria viridis [6] = assay: Pre-emergence herbicidal effect; conditions: visual score after 3 weeks
Text: as §1

Veronica persica = assay: Pre-emergence herbicidal effect; conditions: 320 g ai/ha, visual score after 3 weeks
Text: as §1

Viola tricolor = assay: Pre-emergence herbicidal effect; conditions: visual score after 3 weeks
Text: as §1

Alopecurus myosuroides [7] = assay: Post-emergence herbicidal effect; conditions: 80 g ai/ha, visual score after about 3 weeks
Description: (§2) [table] Seeds of monocotyledonous and dicotyledonous weed and crop plants are laid out in sandy loam soil in wood-fibre pots, covered with soil and cultivated in a greenhouse under good growth conditions. 2 to 3 weeks after sowing, the test plants are treated at the one-leaf stage. The compounds of the invention, formulated in the form of wettable powders (WP) or as emulsion concentrates (EC), are then sprayed onto the green parts of the plants as aqueous suspension or emulsion at a water application rate equating to 600 to 800 L/ha with addition of 0.2% wetting agent. After the test plants have been left to stand in the greenhouse under optimal growth conditions for about 3 weeks, the action of the preparations is assessed visually in comparison to untreated controls (herbicidal action in percent (%): 100% activity=the plants have died, 0% activity=like control plants).

Avena fatua [8] = assay: Post-emergence herbicidal effect; conditions: 80 g ai/ha, visual score after about 3 weeks
Description: as §2

Digitaria sanguinalis [9] = assay: Post-emergence herbicidal effect; conditions: 80 g ai/ha, visual score after about 3 weeks
Description: as §2

Echinochloa crus-galli [10] = assay: Post-emergence herbicidal effect; conditions: 80 g ai/ha, visual score after about 3 weeks
Description: as §2

Lolium rigidum [11] = assay: Post-emergence herbicidal effect; conditions: 80 g ai/ha, visual score after about 3 weeks
Description: as §2

Setaria viridis [12] = assay: Post-emergence herbicidal effect; conditions: 80 g ai/ha, visual score after about 3 weeks
Description: as §2

Row | Structure (SMILES) | Pre-emergence activity ABUTH (Abutylon threophrasti) [%] | Pre-emergence activity ALOMY (Alopecurus myosuroides [1]; 80 g ai/ha) [%] | Pre-emergence activity ALOMY (Alopecurus myosuroides [1]; 320 g ai/ha) [%] | Pre-emergence activity AMARE (Amaranthus retroflexus) [%] | Pre-emergence activity AVEFA (Avena fatua [2]; 80 g ai/ha) [%] | Pre-emergence activity AVEFA (Avena fatua [2]; 320 g ai/ha) [%] | Pre-emergence activity DIGSA (Digitaria sanguinalis [3]; 80 g ai/ha) [%] | Pre-emergence activity DIGSA (Digitaria sanguinalis [3]; 320 g ai/ha) [%] | Pre-emergence activity ECHCG (Echinochloa crus-galli [4]; 320 g ai/ha) [%] | Pre-emergence activity LOLRI (Lolium rigidum [5]; 80 g ai/ha) [%] | Pre-emergence activity LOLRI (Lolium rigidum [5]; 320 g ai/ha) [%] | Pre-emergence activity MATIN (Matricaria inodora) [%] | Pre-emergence activity SETVI (Setaria viridis [6]; 80 g ai/ha) [%] | Pre-emergence activity SETVI (Setaria viridis [6]; 320 g ai/ha) [%] | Pre-emergence activity VERPE (Veronica persica) [%] | Pre-emergence activity VIOTR (Viola tricolor; 320 g ai/ha) [%] | Post-emergence activity ALOMY (Alopecurus myosuroides [7]) [%] | Post-emergence activity AVEFA (Avena fatua [8]) [%] | Post-emergence activity DIGSA (Digitaria sanguinalis [9]) [%] | Post-emergence activity ECHCG (Echinochloa crus-galli [10]) [%] | other results
1 | CC#Cc1cc(C)c(C2=C(OC(=O)OCC)C3(CCC(COC)CC3)NC2=O)c(OC)c1 (stereo not shown) [Example Q8] | 100 | 100 | 100 | 100 | 80 | 100 | 100 | 100 | 100 | 100 | 100 | 100 | 100 | 100 | 100 | 100 | 100 | 100 | 100 | 100 | Pre-emergence activity ECHCG (Echinochloa crus-galli [4]; 80 g ai/ha): 100%; Pre-emergence activity VIOTR (Viola tricolor; 80 g ai/ha): 100%; Post-emergence activity LOLRI (Lolium rigidum [11]): 100%; Post-emergence activity SETVI (Setaria viridis [12]): 100%
2 | CC#Cc1cc(C)c(C2=C(O)C3(CCC(COC)CC3)NC2=O)c(OC)c1 (stereo not shown) [Example D6] | 100 | 80 | 100 | 100 | 80 | 100 | 100 | 100 | 100 | 100 | 100 | 90 | 100 | 100 | 100 | 100 | 100 | 100 | 100 | 100 | Post-emergence activity LOLRI (Lolium rigidum [11]): 100%; Post-emergence activity SETVI (Setaria viridis [12]): 100%
